What was measured:
[1] = target: T1, CCK receptor (pancreas) (Rattus norvegicus, UniProt P30551); test: CCK Receptor Binding (pancreas); design: species or system rat (male Sprague-Dawley); settings: for IC50: rat pancreas membranes, 125I-CCK-33, 37° C., 30 minutes, read-out: I-CCK-8 Pancreas IC50
T1 construct: The whole pancreas of a male Sprague-Dawley rat; from tissue; host or cells: whole pancreas of male Sprague-Dawley rat, washed membrane suspension
T1 sequence (P30551 1-444): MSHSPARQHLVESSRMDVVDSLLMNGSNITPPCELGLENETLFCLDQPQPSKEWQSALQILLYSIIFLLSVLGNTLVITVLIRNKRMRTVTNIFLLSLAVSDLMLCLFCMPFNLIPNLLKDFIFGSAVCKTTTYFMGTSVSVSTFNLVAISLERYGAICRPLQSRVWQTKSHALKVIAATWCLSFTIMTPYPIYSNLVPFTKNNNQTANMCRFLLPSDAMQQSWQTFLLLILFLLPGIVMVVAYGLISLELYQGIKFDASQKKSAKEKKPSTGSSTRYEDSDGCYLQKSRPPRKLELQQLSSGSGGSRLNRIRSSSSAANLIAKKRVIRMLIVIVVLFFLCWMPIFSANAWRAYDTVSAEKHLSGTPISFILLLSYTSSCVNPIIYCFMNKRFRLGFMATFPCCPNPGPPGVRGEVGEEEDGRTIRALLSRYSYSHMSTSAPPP
Source text: (§1) Screening of the novel compounds according to the present invention to determine biological activity and obtain an IC50 value for them (in order to identify significant CCK-antagonism) is accomplished using an ^125 I-CCK receptor binding assay and in vitro isolated tissue preparations. These tests involve the following:
CCK Receptor Binding (pancreas) Method
CCK-33 is radiolabeled with ^125 I-Bolton Hunter reagent (2000 Ci/mmole), as described by Sankara et al. (J. Biol. Chem., 254, 9349-9351, 1979). Receptor binding is performed according to Innis and Snyder (Proc. Natl. Acad. Sci., 77, 6917-6921, 1980), with the minor modification of adding the additional protease inhibitors, phenylmethane sulfonyl fluoride and o-phenanthroline, which have no effect on the ^125 I-CCK receptor binding assay.
The whole pancreas of a male Sprague-Dawley rat (200-350 g), which has been sacrificed by decapitation, is dissected free of fat tissue and homogenized in 20 volumes of ice-cold 50 mM Tris HCl (pH 7.7 at 25° C.) with a Brinkman Polytron PT-10. The homogenates are centrifuged at 48,000 g for 10 minutes, then the resulting pellets are resuspended in Tris Buffer, centrifuged as above, and resuspended in 200 volumes of binding assay buffer (50 mM Tris HCl, pH 7.7 at 25° C., 5 mM dithiothreitol, 0.1 mM bacitracin, 1.2 mM phenylmethane sulfonyl fluoride and 0.5 mM o-phenanthroline).
For the binding assay, 25 μl of buffer (for total binding), or unlabeled CCK-8 sulfate sufficient to give a final concentration of 1 μM of CCK-8 (for nonspecific binding), or the compounds of the formula of the compounds according to the instant invention (for determination of antagonism to ^125 I-CCK binding) and 25 μl of ^125 I-CCK-33 (30,000-40,000 cpm), are added to 450 μl of the membrane suspensions in microfuge tubes. All assays are run in duplicate or triplicate, and the reaction mixtures are incubated at 37° C. for 30 minutes and centrifuged in a Beckman Microfuge (4 minutes) immediately after adding 1 ml of ice-cold incubation buffer. The supernatant is aspirated and discarded, and the pellets are counted with a Beckman Gamma 5000.
(§2) Representative formula I compounds listed were tested as CCK-antagonists (in I-CCK-8 pancreas and ^125 I-CCK Brain assays) with results, as tabulated in the following table.

[2] = system: CCK receptor (brain, cerebral cortex); test: CCK Receptor Binding (brain); design: species or system guinea pig (male Hartley); settings: in words, comment on Table 1 (pancreas vs brain); especially vs formula Ia and Example 13
Protocol: as §1
(§3) CCK Receptor Binding (brain) Method
(§4) CCK-33 is radiolabeled and the binding is performed according to the description for the pancreas method, with modifications according to Saito et al., J. Neurochem., 37, 483-490, 1981.
(§5) Male Hartley guinea pigs (300-500 g) are sacrificed by decapitation, and the brains are removed and placed in ice-cold 50 mM Tris HCl (Trizma-7.4) [pH 7.4 at 25° C.]. The cerebral cortex is dissected and used as a receptor source and each gram of fresh guinea pig brain tissue is homogenized in 10 ml of Tris/Trizma buffer with a Brinkman polytron PT-10. The homogenates are centrifuged at 42,000 g for 15 minutes, then the resulting pellets are resuspended in 80 volumes of binding assay buffer (10 mM N-2-hydroxyethyl-piperazine-N'-2-ethanesulfonic acid (HEPES), 5 mM MgCl2, 1 mM ethylene glycol-bis(β-amino-ethyl-ether-N,N'-tetraacetic acid (EGTA), 0.4% BSA and 0.25 mg/ml bacitracin, pH 6.5).
(§6) The remainder of the inding assay method is as described for the pancreas method, except that the reaction mixtures are incubated at 25° C. for 2 hours before […].
as §2

[3] = target: T2, CCK receptor (brain, cerebral cortex) (Cavia porcellus, UniProt H0VZC5); test: CCK Receptor Binding (brain); design: species or system guinea pig (male Hartley); settings: guinea pig cerebral cortex; 125I-CCK-33, pH 6.5, 25° C., 2 hours
T2 construct: The cerebral cortex is dissected and used as a receptor source; from tissue; host or cells: cerebral cortex of male Hartley guinea pig, washed membrane suspension
T2 sequence (H0VZC5 1-426): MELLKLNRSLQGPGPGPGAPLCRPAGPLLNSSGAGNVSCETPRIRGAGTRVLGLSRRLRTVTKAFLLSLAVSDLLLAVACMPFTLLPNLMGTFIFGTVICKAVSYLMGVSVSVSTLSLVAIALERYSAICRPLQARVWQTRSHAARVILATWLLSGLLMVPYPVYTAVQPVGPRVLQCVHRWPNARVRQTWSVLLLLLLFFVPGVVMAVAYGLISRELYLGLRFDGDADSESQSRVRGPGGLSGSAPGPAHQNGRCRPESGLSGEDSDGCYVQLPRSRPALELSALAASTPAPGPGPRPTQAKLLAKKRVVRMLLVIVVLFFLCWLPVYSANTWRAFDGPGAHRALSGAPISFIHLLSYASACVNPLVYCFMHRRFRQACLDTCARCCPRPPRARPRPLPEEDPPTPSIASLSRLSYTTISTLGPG
Protocol: as §1, §3, §4, §5, §6, §2

Compound	IC50 [1]	selectivity compared with the other compounds [2]	IC50 [3]	potency compared with the formula Ia compound ([1]; in words, comment on Table 1 (pancreas and brain binding))
CN1C(=O)[C@H](Cc2c[nH]c3ccccc23)n2c(nc3ccccc3c2=O)-c2ccccc21 [Example 19, 5-methyl-7β-[(1H-indol-3-yl)methyl]quinazolino(3,2-D)(1,4)benzodiazepin-6,9(5H,7H)-dione hydrate]	104 µM	substantial change in selectivity	51 µM	–
O=C1Nc2ccccc2-c2nc3ccccc3c(=O)n2[C@@H]1Cc1c[nH]c2ccccc12 [Example 13, 7α-[(1H-indol-3-yl)methyl]quinazolino(3,2-D)-1,4-benzodiazepin-6,9(5H,7H)-dione hydrate]	67 µM	–	100 µM	improved
O=C1Nc2ccccc2-c2nc3ccccc3c(=O)n2[C@H]1Cc1ccc(O)cc1 [Example 16, 7β-[(4-hydroxyphenyl)methyl]quinazolino(3,2-D)(1,4)-benzodiazepin-6,9(5H,7H)-dione hydrate]	100 µM	–	100 µM	–
C[C@H]1C(=O)Nc2ccccc2-c2nc3ccccc3c(=O)n21 [Example 14, 7β-methylquinazolino(3,2-D)(1,4)benzodiazepin-6,9-(5H,7H)-dione]	100 µM	–	100 µM	–

The remaining lines, values ahead:

IC50 [1]	selectivity compared with the other compounds [2]	IC50 [3]	potency compared with the formula Ia compound ([1]; in words, comment on Table 1 (pancreas and brain binding))	Compound
100 µM	–	100 µM	–	O=C1Cn2c(nc3ccccc3c2=O)-c2ccccc2N1 [Example 15, quinazolino(3,2-D)(1,4)benzodiazepin-6,9(5H,7H)-dione]
76 µM	–	110 µM	–	O=C1Nc2ccccc2-c2nc3ccccc3c(=O)n2[C@H]1Cc1c[nH]c2ccccc12 [*, 7β-[(1H-indol-3-yl)methyl]quinazoline(3,2-D)(1,4)benzodiazepin-6,9(5H,7H)-dione, reference compound]
